Here are results for one compound from US11236352B2, “Transgenic plants resistant to non-protein amino acids” (Yeda Research and Development Co. Ltd., priority 2011, dated 2022).

Assay [1] concerns wild-type Arabidopsis thaliana. Description: m-Tyr resistance: root growth on MS medium with m-Tyr, wild type. As to conditions: wild type plants, 20 μM m-Tyr in growth media, 7 days. The class given is in vivo. The method, then: (§1) Root growth of Wt (wild type), Cyt (transgenic plant containing cytosol localized bacterial PheRS) and Dual (transgenic plant containing plastids localized bacterial PheRS). Upper panels: samples grown on media containing 20 μM m-Tyrosine. Bottom panels: non-treated samples.
(§2) To assess effects of m-Tyr on Arabidopsis root growth, […] of m-Try was added to MS medium. Arabidopsis seeds were sterilized by shaking in 30% bleach. 0.3% Triton X-100 for 10 min, followed by three rinses with sterile distilled water. Petri dishes with seeds on agar medium were cold-stratified for 72 h at 4° C., and were subsequently placed vertically in green-house at 23° C., under 16:8 h light/dark cycle. After 7 days of growth, the root length of the plant was analyzed.
(§3) The bacterial PheRS genes described in the “Material and Methods” section hereinabove were expressed under the control of the constitutive 35S CaMV promoter. A transit peptide was appended to N-terminus of EcPheRS-α and EcPheRS-β subunits of the bacterial enzyme in order to direct them into the mitochondria and chloroplast of Arabidopsis thaliana. The second constructs pair including PheRS-α and PheRS-β lacked the transit peptides. […] Several independent transgenic lines were obtained, and their resistance to m-Tyr was analyzed. […]

For assay [2], the system named is mtp-PheRS Arabidopsis thaliana lines. Description: m-Tyr resistance: root growth on MS medium with m-Tyr, mtp-PheRS line. The assay is classed as in vivo. As to conditions: lines containing mtp-PheRS, 20 μM m-Tyr in growth media, 7 days. The method, then:
as §1, §2, §3

Assay [3] concerns cyt-PheRS Arabidopsis thaliana lines. Description: m-Tyr resistance: root growth on MS medium with m-Tyr, cyt-PheRS line. As to conditions: cyt-PheRS expressing line, 20 μM m-Tyr in growth media, 7 days. The assay is classed as in vivo. The method, then: as §1, §2, §3
Assay [4] deals with Arabidopsis thaliana. As to conditions: added to an agar medium; read-out: concentration that inhibits root growth by 50%; cited from earlier work.
In assay [5] the test system is Arabidopsis thaliana. As to conditions: in vivo; cited from earlier work.
Another assay deals with T1, HsmtPheRS (Homo sapiens, UniProt O95363).
T1 sequence (O95363 1-451): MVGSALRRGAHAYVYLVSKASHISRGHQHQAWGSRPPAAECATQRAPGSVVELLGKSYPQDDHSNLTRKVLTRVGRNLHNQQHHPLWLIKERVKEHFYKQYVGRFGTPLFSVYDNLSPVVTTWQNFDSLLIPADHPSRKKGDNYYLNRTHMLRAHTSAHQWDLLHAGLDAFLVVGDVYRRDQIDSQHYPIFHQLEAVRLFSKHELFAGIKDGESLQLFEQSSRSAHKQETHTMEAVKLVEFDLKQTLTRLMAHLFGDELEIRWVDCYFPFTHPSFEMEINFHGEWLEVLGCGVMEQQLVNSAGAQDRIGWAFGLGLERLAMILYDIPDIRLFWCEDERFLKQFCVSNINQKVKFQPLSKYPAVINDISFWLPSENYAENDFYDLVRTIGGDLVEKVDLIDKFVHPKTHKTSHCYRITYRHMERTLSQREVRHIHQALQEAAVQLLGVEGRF
As to conditions: mitochondrial enzyme, no editing domain; cited from earlier work.

The target in assay [6] is bacterial PheRS (Thermus thermophilus, UniProt Q5SGX1+Q5SGX2). As to conditions: FIG. 1; cited from earlier work.
Chain of bacterial PheRS (Thermus thermophilus, UniProt Q5SGX1+Q5SGX2) (Q5SGX1 whole entry): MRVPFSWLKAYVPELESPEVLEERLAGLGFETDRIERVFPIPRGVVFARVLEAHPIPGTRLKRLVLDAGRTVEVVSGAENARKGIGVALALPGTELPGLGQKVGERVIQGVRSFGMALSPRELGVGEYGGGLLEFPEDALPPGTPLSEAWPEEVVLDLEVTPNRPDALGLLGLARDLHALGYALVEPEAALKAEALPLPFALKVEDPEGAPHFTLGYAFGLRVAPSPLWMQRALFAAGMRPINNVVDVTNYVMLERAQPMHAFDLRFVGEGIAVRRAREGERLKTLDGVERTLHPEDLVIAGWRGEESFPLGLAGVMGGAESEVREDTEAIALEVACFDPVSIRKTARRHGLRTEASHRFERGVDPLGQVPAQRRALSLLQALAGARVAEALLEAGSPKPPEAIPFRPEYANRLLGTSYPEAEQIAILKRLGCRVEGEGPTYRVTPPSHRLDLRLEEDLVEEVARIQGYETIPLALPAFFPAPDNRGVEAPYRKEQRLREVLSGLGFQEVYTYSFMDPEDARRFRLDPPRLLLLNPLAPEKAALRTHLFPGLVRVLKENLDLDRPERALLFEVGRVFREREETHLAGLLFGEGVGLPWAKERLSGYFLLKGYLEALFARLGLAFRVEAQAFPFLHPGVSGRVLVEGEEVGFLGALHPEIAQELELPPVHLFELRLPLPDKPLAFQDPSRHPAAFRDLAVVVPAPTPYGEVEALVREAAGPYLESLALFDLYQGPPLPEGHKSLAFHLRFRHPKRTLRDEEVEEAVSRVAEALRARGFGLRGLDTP
Chain of bacterial PheRS (Thermus thermophilus, UniProt Q5SGX1+Q5SGX2) (Q5SGX2 whole entry): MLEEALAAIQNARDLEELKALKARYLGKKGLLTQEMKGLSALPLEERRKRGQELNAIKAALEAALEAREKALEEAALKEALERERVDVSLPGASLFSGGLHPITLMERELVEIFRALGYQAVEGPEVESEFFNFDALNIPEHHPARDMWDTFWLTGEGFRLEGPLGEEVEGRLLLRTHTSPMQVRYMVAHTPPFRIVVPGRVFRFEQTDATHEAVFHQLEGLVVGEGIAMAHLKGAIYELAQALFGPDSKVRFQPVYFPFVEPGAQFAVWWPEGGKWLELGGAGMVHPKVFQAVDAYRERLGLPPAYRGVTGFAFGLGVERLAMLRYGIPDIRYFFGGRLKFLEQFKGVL
The test system of assay [7] is bacterial PheRS. As to conditions: incubated with bacterial PheRS; cited from earlier work.

Structures are written as SMILES.

As for `N[C@@H](Cc1cccc(O)c1)C(=O)O` [m-Tyr, meta-tyrosine], the root development result in assay [1] was “didn't develop”; in assay [2], “developed up to the half of the length of the non-treated plants”; in assay [3], “less developed compared to the line containing mtp-PheRS”. In addition, the IC50 with Arabidopsis thaliana [4] was 2000 nM. Also, the “concentration that completely prevents seed germination” value with Arabidopsis thaliana [5] was 50 µM. Also, the “synthesis of m-Tyr-tRNA^Phe” value at HsmtPheRS is given as “could stably synthesize m-Tyr-tRNA^Phe”. At bacterial PheRS [6], the “mischarging of tRNA^Phe with m-Tyr” value is “no mischarging”. For the same compound, the “deacylation of m-Tyr from preloaded m-Tyr-tRNA^Phe” value with bacterial PheRS [7] is “deacylated from the tRNA”.
